This note sets out measurements from US20250281460A1, “PEGYLATED BILIRUBIN FOR THE TREATMENT OF […], OBESITY, FATTY LIVER DISEASE, CARDIOVASCULAR DISEASES AND TYPE II DIABETES” (The University of Toledo, priority 2019, published 2025).

Entries after “also recorded” stand apart in the source; their conditions may differ.

One assay deals with BAT cells. The assay is described as follows: Lipid accumulation over differentiation of BAT cells. Conditions: increasing doses over the differentiation of the BAT cells.
Another assay concerns 3T3-PPARα cells. The assay is described as follows: SeaHorse mitochondrial respiration in 3T3-PPARα cells. Format: cell-based, mouse. Particulars: 3T3-L1 cells overexpressing PPARα. An excerpt: (§1) To investigate the specific role of bilirubin on PPARα or PPARγ as well as mitochondrial function and gene regulation, 3T3-LI cells that overexpressed each receptor (3T3-PPARα or 3T3-PPARγ2) were generated via lentivirus (FIGS. 2A-2B). […] The 3T3-Vector cells had no responses to biliverdin in FIGS. 2A-2B.
(§2) Cellular respiration was quantified using the Seahorse Extracellular Flux Analyzer XF-96 (Agilent Technologies, Cedar Creek, TX). The Seahorse XF Cell Mito Stress Test Kit (Agilent Technologies, Cat #103015-100) was used for analysis of cellular respiration. BAT or 3T3-L1 cells were seeded on a XF96 cell culture microplate (Agilent 101085-004) at 20,000 cells per well. Cells were then differentiated as previously described for 9 days. […] The oxygen consumption rate (OCR) and extracellular acidification rate (ECAR) were used to quantify the cellular energy phenotype of the cells. After treatment, cells were washed twice with Seahorse Bioscience Assay Media (XF Base media with 25 mM Glucose, 2 mM […], and 1 mM Sodium Pyruvate) then incubated with the buffer for 1 hour in a non-CO2 incubator. The Seahorse Cartridge ports were loaded with […] of assay media with […] FCCP, 10 μM Oligomycin, 5 μM Rotenone/Antimycin A in different ports an hour before assay. […] The raw data and graphs were supplied as an Excel File or Graphpad Prizm file.

Another assay deals with 3T3-PPARγ2 cells. Put plainly: SeaHorse mitochondrial respiration and gene activity in 3T3-PPARγ2 cells. It counts as cell-based, mouse. Particulars: 3T3-L1 cells overexpressing PPARγ2.
From the text: as §1, §2

Assay [1] concerns 3T3-L1 cells. Put plainly: Adipogenesis assay, lipid accumulation (Nile Red) in 3T3-L1 cells. It counts as cell-based, mouse. Conditions: over 9-day adipocytic differentiation. How it is done: (§3) Whether bilirubin decreases adiposity by enhancing mitochondrial function was evaluated. It was previously shown that bilirubin reduces lipid accumulation in adipocytes. However, it remained to be determined if this occurs by activation of PPARα to reduce adiposity, selective actions on PPARγ, or is a dual PPAR agonist, which together may mediate its glucose- and lipid-lowering effects. First, to determine if bilirubin enhances genes for mitochondrial function, 3T3-L1 cells, a WAT-type murine pre-adipocyte cell line that differentiates to full adipocytes, were treated with increasing concentrations of biliverdin, which is more soluble and is rapidly produced to bilirubin, over the 9-day adipocytic differentiation protocol.

The target in another assay is T1, PPARα (Mus musculus, UniProt P23204).
T1 sequence (P23204 1-468): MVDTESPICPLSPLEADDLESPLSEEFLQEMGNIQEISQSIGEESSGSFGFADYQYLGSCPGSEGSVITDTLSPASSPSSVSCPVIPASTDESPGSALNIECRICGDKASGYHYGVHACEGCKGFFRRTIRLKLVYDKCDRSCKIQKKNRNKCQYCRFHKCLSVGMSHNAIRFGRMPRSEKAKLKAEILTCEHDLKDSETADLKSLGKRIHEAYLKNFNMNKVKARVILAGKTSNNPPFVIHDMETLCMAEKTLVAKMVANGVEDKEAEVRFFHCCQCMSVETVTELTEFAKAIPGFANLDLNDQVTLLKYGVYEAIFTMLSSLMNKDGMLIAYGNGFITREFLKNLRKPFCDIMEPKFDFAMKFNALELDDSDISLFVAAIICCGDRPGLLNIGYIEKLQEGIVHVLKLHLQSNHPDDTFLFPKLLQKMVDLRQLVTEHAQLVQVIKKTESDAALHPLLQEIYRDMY
How it is done:
Cells were crosslinked with formaldehyde with a final concentration of 1% in media while shaking at room temperature for 10 min. The activity of the formaldehyde was quench with the addition of glycine while rocking for 5 min at room temperature. Cells were washed twice with 1×PBS, collected into a 15 ml conical tube and spun down at 3,000 rpm for 5 min. Pellets were rapidly frozen on dry ice ethanol mix and stored at −80° C. for a minimum of 1 hour or immediately resuspended in a series of lysis buffers (see table for ChIP buffer table) containing protease inhibitors for 5 min. Cells were sonicated for approximately 8 min per sample. The lysates were centrifuged for 10 min at 4° C. at 13,000 rpm. The lysates were pre-cleared in BSA/Salmon sperm blocked beads rotating for 2 hours at 4° C. […] Lysates were then incubated with Agarose A beads and rotated for 4 hours at 4° C. The samples were then washed with a ChIP washing buffer (see table for ChIP buffer table) 5 times. The protein was eluted in an Elution buffer at 65° C. for 30 min shaking every 2 min. The eluted samples were transferred to another tube and incubated at 65° C. overnight to reverse crosslinking. The samples were purified after 1-hour incubation with Proteinase K at 55° C. with a isopropanol/chloroform/ethanol mixture. DNA was quantified on a NanoDrop 2000 spectrophotometer (Thermo Fisher Scientific, Wilmington, DE). PCR amplification of the genomic DNA was performed by quantitative real-time PCR using TrueAmp SYBR Green qPCR SuperMix (Advance Bioscience). The thermocycling protocol consisted of 2 min at 50° C. and then 10 min at 95° C., 48 cycles of 30 sec at 95° C., 1 min at 65° C.

Assay [2] relates to 3T3-L1 cells. The assay is described as follows: Real-time PCR of mitochondrial and lipid burning genes in 3T3-L1 cells. Format: cell-based, mouse. The protocol:
as §3
Total RNA was extracted from mouse tissues using the miRNeasy Mini Kit (Qiagen). Total RNA was read on a NanoDrop 2000 spectrophotometer (Thermo Fisher Scientific, Wilmington, DE) and cDNA was synthesized using High Capacity cDNA Reverse Transcription Kit (Applied Biosystems). PCR amplification of the cDNA was performed by quantitative real-time PCR using TrueAmp SYBR Green qPCR SuperMix (Advance Bioscience). The thermocycling protocol consisted of 3 min at 95° C., 48 cycles of 15 sec at 95° C., 30 sec at 60° C., and based on primer size 0 to 30 sec at 72° C. and finished with a melting curve ranging from 60-95° C. to allow distinction of specific products. Normalization was performed in separate reactions with primers to 36B4.

From the text for BAT cells: Upon differentiation, cells were stained with Nile Red to visualize lipid content, and densitometry was used as a direct measure as previously described.

In the case of `C=CC1=C(C)/C(=C/C2=NC(=C\c3[nH]c(/C=C4\NC(=O)C(C)=C4C=C)c(C)c3CCC(=O)O)/C(CCC(=O)O)=C2C)NC1=O` [biliverdin], the lipid accumulation result in the assay on BAT cells is given as “no impact”. Moreover, in the assay on 3T3-PPARα cells, the ATP production result is “significantly higher”, the basal respiration result is “significantly higher”, the maximum respiration result is recorded as “significantly higher” and the proton leak result was “significantly higher”. In addition, in the assay on 3T3-PPARγ2 cells, the gene related activity entry was “did not have significant increase” and the mitochondrial respiration result was “no significant changes”. Besides, in the assay on 3T3-L1 cells [1] (1 μM), the lipid accumulation result is given as “did not reduce”. For the same compound, the lipid accumulation entry in the assay on 3T3-L1 cells [1] (10 μM) was “significantly reduced”. In addition, in the assay on 3T3-L1 cells [1] (50 μM), the lipid accumulation result is recorded as “significantly reduced”. The lipid accumulation entry with 3T3-L1 cells [1] (50 μM, listed as Biliverdin) is reported as “significantly reduced; also recorded: substantially decreased”. Further, at PPARα (50 μM, 24 hours), the “PPARα occupancy at the 13K enhancer of the Ucp1” value was “significantly increased” and the “PPARα occupancy at the −3306 to −3109 region of the Cpt1 promoter” value was “significantly increased”. Further, on PPARα (BAT cells), the “occupancy of PPARα at 13K enhancer of the Ucp1” value is “increased”, the “occupancy of PPARα at the Cpt1 promoter” value was “increased” and the “occupancy of PPARα at the enhancer region of the Adrb3 promoter” value was “intensified”. For the same compound, the “Ucp1 mRNA” value in the assay with 3T3-L1 cells [2] (1 μM) is “significantly heightened”. In the assay with 3T3-L1 cells [2] (50 μM), the “Cpt1 mRNA expression” value was “significantly increased” and the “Ucp1 mRNA expression” value is reported as “significantly increased”.
